Article PMC7044277 (Nature Communications, 2020)
Several values for one entry are separate records, joined by “and”; a condition that tells them apart may be missing. Identical values can stand only once.

Key:
Type in all cases: cell-based
320 non-olfactory GPCRs [1] = biological target: T1, 320 non-olfactory GPCRs (Homo sapiens, UniProt O95838)
T1 construct: expressed in transfected cells; host or cells: HTLA cells

320 non-olfactory GPCRs [2] = biological target: T2, 320 non-olfactory GPCRs (Homo sapiens, UniProt P08912)
T2 construct: expressed in transfected cells; host or cells: HTLA cells

320 non-olfactory GPCRs [3] = biological target: T3, 320 non-olfactory GPCRs (Homo sapiens, UniProt Q9UBS5)
T3 construct: expressed in transfected cells; host or cells: HTLA cells

320 non-olfactory GPCRs [4] = biological target: T4, 320 non-olfactory GPCRs (Homo sapiens, UniProt Q92847)
T4 construct: expressed in transfected cells; host or cells: HTLA cells
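Also: compound tested at 1 µM final concentration.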

T3 sequence (Q9UBS5 20-961): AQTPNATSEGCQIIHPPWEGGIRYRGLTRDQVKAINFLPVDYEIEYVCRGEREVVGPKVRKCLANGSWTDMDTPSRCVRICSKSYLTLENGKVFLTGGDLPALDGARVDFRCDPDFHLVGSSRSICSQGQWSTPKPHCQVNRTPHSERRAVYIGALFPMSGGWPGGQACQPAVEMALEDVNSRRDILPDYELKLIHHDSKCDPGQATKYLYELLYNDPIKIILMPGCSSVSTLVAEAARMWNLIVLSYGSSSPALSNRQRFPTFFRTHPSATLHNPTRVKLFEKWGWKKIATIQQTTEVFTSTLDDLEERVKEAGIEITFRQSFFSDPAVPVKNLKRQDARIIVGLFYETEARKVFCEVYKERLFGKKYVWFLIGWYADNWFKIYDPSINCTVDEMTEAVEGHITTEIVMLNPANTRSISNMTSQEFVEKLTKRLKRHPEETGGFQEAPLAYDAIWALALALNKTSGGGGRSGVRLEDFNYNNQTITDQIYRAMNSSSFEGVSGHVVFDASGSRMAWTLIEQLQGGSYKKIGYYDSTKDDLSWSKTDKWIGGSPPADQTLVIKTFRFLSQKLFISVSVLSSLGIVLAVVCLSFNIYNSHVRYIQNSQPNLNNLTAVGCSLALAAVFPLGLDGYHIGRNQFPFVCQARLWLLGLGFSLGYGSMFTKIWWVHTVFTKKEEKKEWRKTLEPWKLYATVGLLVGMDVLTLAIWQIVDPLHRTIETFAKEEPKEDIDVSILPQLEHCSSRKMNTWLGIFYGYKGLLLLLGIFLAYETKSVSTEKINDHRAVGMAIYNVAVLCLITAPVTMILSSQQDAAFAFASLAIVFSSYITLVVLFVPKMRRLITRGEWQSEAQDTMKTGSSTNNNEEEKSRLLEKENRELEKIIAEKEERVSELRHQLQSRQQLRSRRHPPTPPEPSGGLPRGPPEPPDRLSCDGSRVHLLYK
T4 sequence (Q92847 whole entry): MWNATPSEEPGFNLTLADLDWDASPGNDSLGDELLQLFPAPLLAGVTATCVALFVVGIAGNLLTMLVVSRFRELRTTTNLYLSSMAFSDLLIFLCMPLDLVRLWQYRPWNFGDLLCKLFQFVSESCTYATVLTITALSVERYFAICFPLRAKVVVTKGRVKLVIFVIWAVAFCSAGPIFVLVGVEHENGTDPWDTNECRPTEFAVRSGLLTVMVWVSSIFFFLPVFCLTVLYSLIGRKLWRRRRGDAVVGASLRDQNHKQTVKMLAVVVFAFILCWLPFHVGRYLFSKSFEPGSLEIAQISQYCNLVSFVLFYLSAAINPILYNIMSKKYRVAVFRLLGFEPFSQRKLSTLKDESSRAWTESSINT
T2 sequence (P08912 whole entry): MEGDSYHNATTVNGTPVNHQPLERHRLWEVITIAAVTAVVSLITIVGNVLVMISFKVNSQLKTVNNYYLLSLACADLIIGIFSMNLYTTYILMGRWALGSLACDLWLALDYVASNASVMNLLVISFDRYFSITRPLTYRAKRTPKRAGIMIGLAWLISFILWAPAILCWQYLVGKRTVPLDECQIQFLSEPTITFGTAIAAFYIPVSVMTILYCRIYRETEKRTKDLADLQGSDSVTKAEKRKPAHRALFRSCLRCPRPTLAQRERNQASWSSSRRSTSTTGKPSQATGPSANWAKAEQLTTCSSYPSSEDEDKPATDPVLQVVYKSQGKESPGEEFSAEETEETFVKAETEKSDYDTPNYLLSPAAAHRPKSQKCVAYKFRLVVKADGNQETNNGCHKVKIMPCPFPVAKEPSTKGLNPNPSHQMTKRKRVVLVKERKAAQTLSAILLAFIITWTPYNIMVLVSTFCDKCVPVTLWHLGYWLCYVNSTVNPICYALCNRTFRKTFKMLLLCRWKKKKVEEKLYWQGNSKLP
T1 sequence (O95838 whole entry): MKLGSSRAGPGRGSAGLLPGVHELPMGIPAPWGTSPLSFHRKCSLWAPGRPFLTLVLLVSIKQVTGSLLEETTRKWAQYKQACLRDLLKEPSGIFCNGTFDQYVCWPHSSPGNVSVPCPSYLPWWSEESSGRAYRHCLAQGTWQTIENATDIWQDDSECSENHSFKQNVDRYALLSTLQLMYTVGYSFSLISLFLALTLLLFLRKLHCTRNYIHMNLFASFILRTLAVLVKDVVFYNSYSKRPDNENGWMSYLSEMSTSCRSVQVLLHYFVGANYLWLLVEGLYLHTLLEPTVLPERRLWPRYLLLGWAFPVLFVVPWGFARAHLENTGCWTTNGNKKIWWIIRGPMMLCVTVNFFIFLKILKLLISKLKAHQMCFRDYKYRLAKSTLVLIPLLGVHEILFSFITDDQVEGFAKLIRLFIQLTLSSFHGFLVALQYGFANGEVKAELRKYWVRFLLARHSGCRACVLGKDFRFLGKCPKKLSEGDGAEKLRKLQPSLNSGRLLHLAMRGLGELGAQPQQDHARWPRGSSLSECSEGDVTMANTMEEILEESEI

CCOc1cccc2cc(C(C)NCC3(O)CCCCC3)oc12 (stereo not shown) [O4LE6]
Fold of Basal (320 non-olfactory GPCRs [1]): 0.5783 and 0.9087 and 0.8921 and 0.8331 | Fold of Basal (320 non-olfactory GPCRs [2]): 0.9113 and 1.052 and 0.8596 and 0.9753 | Fold of Basal (320 non-olfactory GPCRs [3]): 0.7465 and 0.7299 and 1.058 and 0.6886 | Fold of Basal (320 non-olfactory GPCRs [4]): 0.8362 and 0.6901 and 0.8172 and 0.8114
